Values joined by “and” are separate entries in the source; they are usually repeats but may differ in a detail not shown here. Equal entries are not always repeated. Structures can show the parent of a compound that is named as a salt.
Experiments:
[1] = GVS (gravimetric vapor sorption) with post-GVS XRPD; type: physicochemical; details: 40-90-0-40% RH, 25° C., two cycles
Description: Form II was first observed during the GVS characterization of Form I. The material collected post-GVS analysis of Form I was analyzed by XRPD. […] The XRPD reference is “LNB15318-53-1-PostGVS” in FIG. 34.
Approximately 26 mg of Form I was placed into a mesh vapor sorption balance pan and loaded into an IGASorp Moisture Sorption Analyser balance by Hiden Analytical. The sample was subjected to a ramping profile from 40-90% relative humidity (RH) at 10% increments, maintaining the sample at each step until a stable weight had been achieved (98% step completion, minimum step length 30 minutes, maximum step length 60 minutes) at 25° C. After completion of the sorption cycle, the sample was dried using the same procedure to 0% RH, and finally taken back to the starting point of 40% RH. Two cycles were performed. The weight change during the sorption/desorption cycles were plotted, allowing for the hygroscopic nature of the sample to be determined. The material collected post-GVS analysis was analyzed by XRPD.

[2] = One-week stability studies (40° C./75% RH, 80° C., ambient light) by XRPD and HPLC; type: physicochemical; details: for HPLC purity after stability experiment: 99% before; for stability by XRPD / appearance: one week at 80° C. and ambient humidity
Description: For all of the stability studies provided herein under the condition of 40° C. and 75% RH, samples were in an uncapped vial and stored in a stability chamber set to 40° C./75% RH. For the 80° C. studies, samples were in a sealed vial and placed in an oven set to 80° C. For the ambient light studies, the samples were in a sealed vial placed on a windowsill in the lab which was exposed to ambient natural and artificial light.

[3] = Dynamic vapor sorption (DVS) experiment; type: physicochemical; details: for crystalline form of the salt before the DVS experiment and afterwards: XRPD form before vs after DVS; for uptake of water (DVS): at 90% RH
[4] = cited from earlier work; for pKa 1: first pKa
[5] = Solubility in 20 mM buffers (Example 3), slurried ca. 72 hr, HPLC concentration; type: physicochemical; details: pH 1.2
Description: 20 mM buffers were prepared to pH 1.2 (HCl/KCl), pH 3.0 (HCl/glycine), pH 4.0 (citric acid/sodium citrate) and pH 7.4 (potassium phosphate monobasic/NaOH). To 0.5 mL of each buffer, the appropriate salt was added to form a slurry. The pH of the slurry was measured and adjusted back to the desired pH (i.e., the initial pH of the buffer) if necessary using 0.2 M buffer components (e.g. 0.2 M HCl(aq)). […] After this time, if solid remained, the pH was again adjusted back to the desired pH if necessary using 0.2 M buffer components. If no solid remained, additional solid was added to reform the slurry before the pH was again adjusted back to the desired pH if necessary using 0.2 M buffer components. All samples were then slurried for a further 2 hr before being analysed by HPLC for concentration.

[6] = Sulcardine salts PK analysis, oral capsule administration; type: in vivo; details: single oral capsule administration, fasted male Beagle dogs
Description: The pharmacokinetic objective of this study was to assess the exposure to sulcardine following oral capsule administration or intravenous (IV) infusion of sulcardine sulfate salt, sulcardine naphthoate salt, or sulcardine mono-edisylate salt (Form II) to male dogs during a pharmacokinetic study.
Non-naïve Beagle Dogs were fasted. Dosing formulations (oral [PO] capsule and intravenous [IV] infusion) were prepared on the day prior to dosing. The IV formulations were made in 10 mM Glycine (pH adjusted to 3.0±0.1), 3% Mannitol, qs in Sterile Water for Injection, USP were filtered through a 0.22 μm PVDF filter and stirred for at least 30 minutes prior to dosing. The capsule doses were encapsulated as active pharmaceutical ingredient powder into the appropriate number of […] gelatin capsules on the day prior to dosing.
Oral dosing was once on Day 1 by oral capsule administration; IV dosing was once on Day 1 by IV infusion over approximately 45 minutes (±2 minutes).
The blood samples for animals dosed orally were collected at 0.5, 1, 2, 3, 5, 8, 12, 18, 24, and 36 hours postdose. The blood samples for animals dosed IV were collected at approximately 0.33, 0.75 (end of infusion), 1.5, 3, 6, 9, 12, 18, and 24 hours post the start of infusion.
The blood samples were centrifuged under refrigerated (2° C. to 8° C.) conditions at 3,200 RPM for 10 minutes and the resulting plasma was divided into two aliquots (150 μL and remaining) then frozen and shipped for bioanalysis. Plasma samples were analyzed for concentrations of sulcardine by Citoxlab North America, Laval, Québec, Canada.
Individual sulcardine plasma concentration time profiles from sulcardine sulfate salt, sulcardine mono-edisylate salt, or sulcardine naphthoate salt treated animals were analyzed using model-independent methods (Gibaldi M, Perrier D. Pharmacokinetics. 2nd ed. New York: Marcel Dekker, Inc., 1982:409-17). Pharmacokinetic parameters were obtained/calculated for each animal on Day 1.

[7] = one week at 40° C. and 75% RH, uncapped vial
[8] = one week under ambient light conditions, sealed vial
[9] = one week under ambient light conditions
[10] = increase in relative humidity (RH) from about 10% to about 90%

| SMILES | stability by XRPD [2, 7] | HPLC purity after stability experiment ([2]; one week at 40° C. and 75% RH) | stability by XRPD / appearance ([2]; sealed vial) | HPLC purity after stability experiment ([2]; one week at 80° C.) [%] | stability by XRPD [2, 8] | HPLC purity after stability experiment [2, 9] | crystalline form of the salt before the DVS experiment and afterwards [3] | uptake of water (DVS) [3] | mass increase [3, 10] | other results |
| --- | --- | --- | --- | --- | --- | --- | --- | --- | --- | --- |
| COc1ccc(NS(=O)(=O)c2cc(CN3CCCC3)c(O)c(CN3CCCC3)c2)cc1.O=S(=O)(O)CCS(=O)(=O)O [Example 17, mono-ethane-1,2-disulfonic acid salt of sulcardine] |  |  |  |  |  |  |  |  |  | XRPD of material collected post-GVS analysis [1]: A new pattern (denoted Form II) was observed |
| COc1ccc(NS(=O)(=O)c2cc(CN3CCCC3)c(O)c(CN3CCCC3)c2)cc1.COc1ccc(NS(=O)(=O)c2cc(CN3CCCC3)c(O)c(CN3CCCC3)c2)cc1.O=S(=O)(O)CCS(=O)(=O)O [Example 14, hemi-ethane-1,2-disulfonic acid salt of sulcardine] | unchanged | 98% | unchanged | 97 | unchanged | 97% | the same | about 0.5% | about 0.5% |  |
| COc1ccc(NS(=O)(=O)c2cc(CN3CCCC3)c(O)c(CN3CCCC3)c2)cc1.O=S(=O)(O)c1ccc2ccccc2c1 [Example 10, naphthalene-2-sulfonic acid salt of sulcardine] | unchanged | 99% and 98% | changed into an orange gel | 90 | unchanged by XRPD but had turned pale yellow | 99% and 97% |  |  |  | stability by XRPD / appearance ([2]; sealed vial, listed as Example 9): unchanged; HPLC purity after stability experiment ([2]; one week at 80° C., listed as Example 9): 99%; stability by XRPD ([2]; one week under ambient light conditions, sealed vial, listed as Example 9): unchanged |
| COc1ccc(S(=O)(=O)NCc2cc(CN3CCCC3)c(O)c(CN3CCCC3)c2)cc1 [Sulcardine free base comparator, 4-methoxy-N-(3,5-bis-(1-pyrrolidinylmethyl)-4-hydroxybenzyl)benzene sulfonamide] |  |  |  |  |  |  |  |  |  | pKa 1 [4]: 6.00; pKa 2 ([4]; second pKa): 10.57; pKa 3 ([4]; third pKa): 11.65 |
| COc1ccc(S(=O)(=O)NCc2cc(CN3CCCC3)c(O)c(CN3CCCC3)c2)cc1 [Example 12, sulcardine hydrochloride] | unchanged | 98% | changed into an orange gel | 90 | unchanged | 99% | the same | about 2.2% | about 2.2% |  |
| COc1ccc(NS(=O)(=O)c2cc(CN3CCCC3)c(O)c(CN3CCCC3)c2)cc1.O=C(O)c1ccc2ccccc2c1O [Example 8, 1-hydroxy-2-naphthoic acid salt of sulcardine] |  |  |  |  |  |  |  |  | about 0.7% | Crystallinity of the material in the solubility experiment [5]: loses crystallinity |
| COc1ccc(S(=O)(=O)NCc2cc(CN3CCCC3)c(O)c(CN3CCCC3)c2)cc1 [sulfate salt, Sulcardine sulfate, reference compound] |  |  |  |  |  |  |  |  |  | Cmax ([6]; dog, plasma, group average): 2820 ng/mL; Tmax ([6]; dog, plasma, median, read-out: Tmax (median peak sulcardine plasma concentration)): 2 h |
| COc1ccc(NS(=O)(=O)c2cc(CN3CCCC3)c(O)c(CN3CCCC3)c2)cc1.O=S(=O)(O)CCS(=O)(=O)O [Example 18, mono-ethane-1,2-disulfonic acid salt of sulcardine] |  |  |  |  |  |  |  |  |  | Cmax of sulcardine in plasma ([6]; group average): 4570 ng/mL; Tmax (median peak sulcardine plasma concentration) ([6]; median): 0.5 h |
| O=S(=O)(O)CCS(=O)(=O)O [1,2-Ethanedisulfonic acid] |  |  |  |  |  |  |  |  |  | pKa 1 [4]: −2.06 |
| COc1ccc(NS(=O)(=O)c2cc(CN3CCCC3)c(O)c(CN3CCCC3)c2)cc1.O=S(=O)(O)c1cccc2c(S(=O)(=O)O)cccc12 [Example 5, naphthalene-1,5-disulfonic acid salt of sulcardine] | unchanged | 99% | unchanged | 99 | unchanged | 99% | the same | about 3.3% |  | mass increase ([3]; increase in relative humidity (RH) from about 5% to about 95%): about 3.3% |

From patent US11020374B2, “Sulcardine salts” (HUYA Bioscience International, LLC, priority 2019, dated 2021)
